In patent US20230184756A1, “BIOMATERIALS” (INSTITUTO DE MEDICINA MOLECULAR JOÃO LOBO ANTUNES, priority 2020, published 2023):
“Also recorded” adds a separate entry of the source. Values belong to the compound of their own block, whether it stands above or below them. Peptide text beside a SMILES is read from it.

Legend:
[1] = Atomic force microscopy of amyloid fibril formation, morphology and dimensions; format: physicochemical; conditions: AFM, 2 weeks incubation at physiologic pH
Text: According to experimental procedures at the host lab^57-59, the samples were placed in poly-1-lysine slides and dried using a vacuum chamber. When fully dried, the samples were rinsed with ultra-pure water and dried with a gentle N2 air flux. A NanoWizard II atomic force microscope (JPK Instruments, Berlin, Germany), mounted on the top of an Axiovert 200 inverted optical microscope (Zeiss, Jena, Germany), was used for the microscopic experiments. The AFM head is equipped with a 5.85-μm z-range linearized piezoelectric scanner and an infrared laser. For the acquisition of the different AFM images, it was used a ACL-50 tip (Applied NanoStructures, Inc., California, USA) with a spring constant between 20-95 N/m and a frequency between 145-230 kHz. Amyloid fibrils were acquired in intermittent (air) mode with a setpoint of between 0.4-0.5 V, a line rate of 0.7-0.8 Hz, an IGain of 20-50 Hz and a PGain of 0.001-0.004. The images acquired were treated afterwards with the JPKSPM Data Processing (JPK Instruments, Berlin, Germany).
The most promising amyloidogenic peptide is typically selected. For this purpose, atomic force microscopy (AFM) was employed. AFM is a technique that can be very useful in the acquisition of surface images with high resolution and sensibility, being therefore suitable for such studies of amyloid fibrils and employed in this analysis. […] Regarding GNNQQNY (FIG. 2, first row from the top), at the start of incubation there are no visible structures. At the end of the incubation period tested (2 weeks), heterogeneous structures are visible. […] In contrast, QVQIIE, ISFLIF and STVIIE peptides show amyloid morphologies at the end of the incubation period tested (FIG. 2). […] This is consistent with the β-sheet content of QVQIIE and ISFLIF at the end of the incubation period, measured via Fourier transform infrared spectroscopy (FIG. 12) and binding profile to Congo Red (FIG. 13). […] As for STVIIE, it forms clear fibril structures in the conditions tested. […]

[2] = Sample preparation: highest concentration at which the peptide fully dissolves; format: physicochemical; conditions: for highest final concentration that they were able to be fully dissolved: 50 mM Tris-HCl pH 7.5, 5 mM EDTA buffer, room temperature
Description: STVIIE, GNNQQNY, QVQIIE and ISFLIF were prepared at the highest final concentration that they were able to be fully dissolved, respectively 1 mg/mL (STVIIE and GNNQQNY), 0.55 mg/mL (QVQIIE) and 0.1 mg/mL (ISFLIF). For all peptide samples the final incubation buffer was 50 mM Tris-HCl pH 7.5, 5 mM EDTA buffer. Briefly, after weighing the peptide, half of the final volume of H2O ultrapure was added. A short vortex of approximately 1500 rpm and 30 seconds and an ultrasound bath of 280 seconds in water/ice were performed two times. The other half of the final volume was then added, containing 100 mM Tris-HCl pH 7.5, 10 mM EDTA buffer was added, with the peptide samples being therefore in the final incubation buffer. Before incubation, two other cycles of vortex and ultrasound bath were performed. The final peptide solution sample was incubated at room temperature.

streptavidin = streptavidin (Streptomyces avidinii, UniProt P22629); test: Binding to free streptavidin by intrinsic tryptophan fluorescence; conditions: 0.8 μM streptavidin
Text: In terms of secondary structure, evaluated via Fourier Transform Infra Red (FITR) spectroscopy (FIG. 5b), the observations echo the results obtained with (non-biotinylated) STVIIE fibrils (confront with FIG. 3f). Addition, via a PEG9 linker, of a biotin moiety to STVIIE N-terminus results in biotin functionalized STVIIE amyloid fibrils. These fibrils show both the […] and the antiparallel cross β-sheet peaks, being quite similar to the spectra obtained with free (non-biotinylated) STVIIE. Then, the activity of the bioactive molecule (biotin) attached to the fibrils was tested, namely the ability to bind its target bridge element molecule (streptavidin), when free in solution (FIG. 5c-g). […] Briefly, the fluorescence intensity spectra of 0.8 μM streptavidin in solution, treated with buffer (FIG. 5c, leftmost graph), free biotin (FIG. 5c, second graph from the left), non-biotinylated free amyloid peptide (FIG. 5c, third from the left) or biotinylated amyloidogenic peptide fibrils (FIG. 5c, rightmost graph) were compared. A drop on the fluorescence signal (decreased quantum yield) accompanied by peak shifting towards the left (blue shift) indicates streptavidin binding to biotin (FIG. 5c). […] The addition of biotinylated peptide to streptavidin produces a similar blue shift of the fluorescence emission maximum (from 340 to 330 nm), as observed when free biotin is added. […]

[3] = system: Human H4 neuroglioma cells; test: LDH release cytotoxicity assay
[4] = FTIR spectroscopy of secondary structure; format: physicochemical; conditions: followed for 6 hours
Description: Following previous approaches^11,54, peptide samples were applied to the FTIR sample holder at 298.15 K. InfraRed spectra were recorded on a Bruker Tensor 27 infrared spectrophotometer (Bruker Optik GmbH, Ettlingen, Germany) equipped with a Bio-ATR II accessory. The spectrophotometer was continuously purged with dried air. Spectra were recorded at a spectral resolution of 4 cm^−1 and 120 accumulations were performed per measurement. The final spectra were corrected to the baseline (the final incubation buffer) and rescaled in the amide I area (˜1600 to ˜1700 cm^−1).
The formation of aggregates by STVIIE quickly leads the larger elements to deposit from solution. This hinders circular dichroism studies of STVIIE secondary structure. For this reason Fourier transform infra-red (FTIR) spectroscopy was used instead (FIG. 3f-g). The changes in secondary structure content were followed for 6 hours (FIG. 3f). Then, after 6 hours, when amyloid structures are readily visible (FIG. 3a), the experiment was terminated. This time frame is also chosen given that for nanotechnology applications short incubation periods can be necessary and/or preferable. The peptides spectra are consistent with antiparallel β-sheet/aggregated strands (1675-1695 cm^−1) and β-sheet (1625-1640 cm^−1) secondary structure being present (FIG. 3f). […]

Compound: Aβ(1-42): Amyloid β peptide (involved in Alzheimer's disease), positive control of fibrillization [reference compound]
morphology at end of incubation [1]: form typical amyloid fibrils

morphology at end of incubation [1]: amyloid-like gel structure | highest final concentration that they were able to be fully dissolved [2]: 0.55 mg/mL
Compound: QVQIIE

Compound: O=C(O)CCCC[C@@H]1SC[C@@H]2NC(=O)N[C@@H]21 [biotin, 5-[(3aS,4S,6aR)-2-oxohexahydro-1H-thieno[3,4-d]imidazol-4-yl]pentanoic acid]
concentration at which the peak shift achieves saturation (streptavidin): ~4 µM | blue shift of streptavidin fluorescence emission peak maximum (streptavidin; peptide and/or biotin 0 to 13.6 μM): 10 nm

Compound: CC[C@H](C)[C@H](NC(=O)[C@@H](NC(=O)[C@@H](NC(=O)[C@@H](N)CO)[C@@H](C)O)C(C)C)C(=O)N[C@H](C(=O)N[C@@H](CCC(=O)O)C(=O)O)[C@@H](C)CC [STVIIE] (H-STVIIE-OH; N-terminus and C-terminus assumed)
toxicity to cells (LDH release) ([3]; fibrils at 0.2, 2 and 20 μM, 6 and 24 hours): not toxic; also recorded: not cytotoxic | time for relative ratio of β-sheet secondary structure to stabilize [4]: less than 3 hours

Compound: GNNQQNY [short amyloidogenic peptide]
morphology at end of incubation [1]: not consistent with the well-defined amyloid fibril morphology | highest final concentration that they were able to be fully dissolved [2]: 1 mg/mL

Compound: Triton [reference compound]
cell death ([3]; 0.2, 2.0 and 20 μM, 6 to 24 hours, buffer control 10-15%): 100%

Compound: CC[C@H](C)[C@H](N)C(=O)N[C@@H](CO)C(=O)N[C@@H](Cc1ccccc1)C(=O)N[C@@H](CC(C)C)C(=O)N[C@H](C(=O)N[C@@H](Cc1ccccc1)C(=O)O)[C@@H](C)CC [ISFLIF] (H-ISFLIF-OH; N-terminus and C-terminus assumed)
solubility in physiological conditions ([2]; physiological conditions): difficult to dissolve at high concentrations
